Measurements as given in patent US10227606B2, “Method of increasing photosynthesis and yield of plants” (NATIONAL UNIVERSITY CORPORATION NAGOYA UNIVERSITY, priority 2013, dated 2019).

Test system: stomata (guard cells)
Test: Measurement of the stomatal aperture in isolated epidermal tissue
Assay type: cell-based, Arabidopsis thaliana
Settings: 20 μM ABA, 2.5 hours under illumination; AHA2-transgenic and wild-type plants
Procedure: The stomatal aperture was measured according to a conventional method (27) with slight modifications. Epidermal tissue isolated from plants 3 to 4 weeks after planting overnight dark-adapted plants was incubated in basal buffer (5 mM MES-BTP, pH 6.5, 50 mM KCl, and 0.1 mM CaCl2). To inhibit light-induced stomatal opening using ABA, the epidermal tissue was incubated under blue light/red light (10 μmol m^−2s^−1 blue light (Stick-B-32; EYELA, Tokyo, Japan) superimposed on 50 μmol ^m−2s^−1 background red light (LED-R; EYELA)) for 2.5 hours at 24° C. in the presence or absence or 20 μM ABA. The stomatal aperture in the abaxial epidermis was measured using a microscope. Stomatal aperture was represented as the average and standard error (SEM) for 25 stomata. Results were confirmed by blind reassessment by another researcher.

SMILES: CC1=CC(=O)CC(C)(C)[C@@]1(O)/C=C/C(C)=C\C(=O)O [ABA, abscisic acid]
- effect of ABA on light-induced stomatal opening: inhibited
